Measured values published in patent US20240358693A1, “METHODS OF TREATING PAIN” (Aisa Pharma, Inc., priority 2023, published 2024).

Tested on: participants with SSc-RP
Test: Average severity of weekly RP attacks (VAS 0-10 cm scale)
Assay type: in vivo, human
Source text: The absolute change in average severity of weekly RP attacks (VAS 0-10 cm scale) from baseline to the end of each Dosing Period was and will be a secondary outcome variable. The sponsor-developed participant-informed diary will be used to record data. Average severity of weekly RP attacks is defined as the total severity scores of RP attacks divided by total number of RP attacks within the last 7 days of each dosing period. Total severity scores of RP attacks during the last 7 days of screening period divided by the total number of RP attacks will be used as baseline for the analysis of all periods. The variable will be calculated similar to frequency data as before.

[1] = Cilnidipine 20 mg, ITT Population - Part A
[2] = Cilnidipine 20 mg, first Baseline RCS subgroup block (not named), ITT Part A
[3] = Cilnidipine 20 mg, first Baseline RCS subgroup block (not named), ITT Part A, score 0-10
[4] = Excluding Outliers, Cilnidipine 10 mg, first Baseline RCS subgroup block (not named), ITT Part A
[5] = Excluding Outliers, Cilnidipine 10 mg, first Baseline RCS subgroup block (not named), ITT Part A, score 0-10
[6] = Excluding Outliers, Cilnidipine 20 mg, first Baseline RCS subgroup block (not named), ITT Part A
[7] = Excluding Outliers, Cilnidipine 20 mg, first Baseline RCS subgroup block (not named), ITT Part A, score 0-10
[8] = Excluding Outliers, Pooled Cilnidipine 10 mg and Cilnidipine 10 mg + Tadalafil 5 mg, first Baseline RCS subgroup block (not named), ITT Part A
[9] = Excluding Outliers, Pooled Cilnidipine 10 mg and Cilnidipine 10 mg + Tadalafil 5 mg, first Baseline RCS subgroup block (not named), ITT Part A, score 0-10
[10] = Excluding Outliers, Pooled Cilnidipine 10 mg and Cilnidipine 10 mg + Tadalafil 5 mg, second Baseline RCS subgroup block (not named), ITT Part A
[11] = Excluding Outliers, Pooled Cilnidipine 10 mg and Cilnidipine 10 mg + Tadalafil 5 mg, second Baseline RCS subgroup block (not named), ITT Part A, score 0-10
[12] = Excluding Outliers, Pooled Cilnidipine 20 mg and Cilnidipine 20 mg + Tadalafil 5 mg, first Baseline RCS subgroup block (not named), ITT Part A
[13] = Excluding Outliers, Pooled Cilnidipine 20 mg and Cilnidipine 20 mg + Tadalafil 5 mg, first Baseline RCS subgroup block (not named), ITT Part A, score 0-10
[14] = Excluding Outliers, Pooled Cilnidipine 20 mg and Cilnidipine 20 mg + Tadalafil 5 mg, second Baseline RCS subgroup block (not named), ITT Part A
[15] = Excluding Outliers, Pooled Cilnidipine 20 mg and Cilnidipine 20 mg + Tadalafil 5 mg, second Baseline RCS subgroup block (not named), ITT Part A, score 0-10
[16] = Excluding Outliers, Pooled Cilnidipine, first Baseline RCS subgroup block (not named), ITT Part A
[17] = Excluding Outliers, Pooled Cilnidipine, first Baseline RCS subgroup block (not named), ITT Part A, score 0-10
[18] = Pooled (over cilnidipine doses), Excluding Outliers, ITT Population - Part A
[19] = Pooled (over cilnidipine doses), Excluding Outliers, by Baseline RCS, first subgroup, ITT Population - Part A
[20] = Pooled (over cilnidipine doses), ITT Population - Part A

Compound: COCCOC(=O)C1=C(C)NC(C)=C(C(=O)OC/C=C/c2ccccc2)C1c1cccc([N+](=O)[O-])c1 (stereo not shown) [Cilnidipine, cilnidipine]
- Average Severity of Weekly RP Attacks (All Attacks), Change from Baseline, Median [1]: −1.07
- Average Severity of Weekly RP Attacks (All Attacks), Mean [1]: 2.30
- Average Severity of Weekly RP Attacks (All Attacks), Median [1]: 2.30
- Average Severity of Weekly RP Attacks (All Attacks), Percent Change from Baseline, Mean [1]: −27.26%
- Average Severity of Weekly RP Attacks (All Attacks), Percent Change from Baseline, Median [1]: −27.26%
- Average Severity of Weekly RP Attacks (All Attacks), Percent Change from Baseline, Mean [2]: −27.26%
- Average Severity of Weekly RP Attacks (All Attacks), Percent Change from Baseline, Median [2]: −27.26%
- Average Severity of Weekly RP Attacks (All Attacks), Change from Baseline, Mean [3]: −1.07
- Average Severity of Weekly RP Attacks (All Attacks), Change from Baseline, Median [3]: −1.07
- Average Severity of Weekly RP Attacks (All Attacks), Mean [3]: 2.30
- Average Severity of Weekly RP Attacks (All Attacks), Median [3]: 2.30
- Mean % reduction in severity (Cilnidipine (20 mg) (n = 3)): 35.5%
- Mean severity at baseline (Cilnidipine (20 mg) (n = 3)): 3.7
- Severity (Cilnidipine (20 mg) (n = 3)): −36%
- Average Severity of Weekly RP Attacks (All Attacks), Percent Change from Baseline, Mean [4]: 0.55%
- Average Severity of Weekly RP Attacks (All Attacks), Percent Change from Baseline, Median [4]: 0.55%
- Average Severity of Weekly RP Attacks (All Attacks), Change from Baseline, Mean [5]: 0.02
- Average Severity of Weekly RP Attacks (All Attacks), Change from Baseline, Median [5]: 0.02
- Average Severity of Weekly RP Attacks (All Attacks), Mean [5]: 3.05
- Average Severity of Weekly RP Attacks (All Attacks), Median [5]: 3.05
- Average Severity of Weekly RP Attacks (All Attacks), Percent Change from Baseline, Mean [6]: −27.26%
- Average Severity of Weekly RP Attacks (All Attacks), Percent Change from Baseline, Median [6]: −27.26%
- Average Severity of Weekly RP Attacks (All Attacks), Change from Baseline, Mean [7]: −1.07
- Average Severity of Weekly RP Attacks (All Attacks), Change from Baseline, Median [7]: −1.07
- Average Severity of Weekly RP Attacks (All Attacks), Mean [7]: 2.30
- Average Severity of Weekly RP Attacks (All Attacks), Median [7]: 2.30
- Average Severity of Weekly RP Attacks (All Attacks), Percent Change from Baseline, Mean [8]: −23.94%
- Average Severity of Weekly RP Attacks (All Attacks), Percent Change from Baseline, Median [8]: −23.94%
- Average Severity of Weekly RP Attacks (All Attacks), Change from Baseline, Mean [9]: −1.35
- Average Severity of Weekly RP Attacks (All Attacks), Change from Baseline, Median [9]: −1.35
- Average Severity of Weekly RP Attacks (All Attacks), Mean [9]: 2.97
- Average Severity of Weekly RP Attacks (All Attacks), Median [9]: 2.97
- Average Severity of Weekly RP Attacks (All Attacks), Percent Change from Baseline, Mean [10]: −21.20%
- Average Severity of Weekly RP Attacks (All Attacks), Percent Change from Baseline, Median [10]: −21.20%
- Average Severity of Weekly RP Attacks (All Attacks), Change from Baseline, Mean [11]: −1.32
- Average Severity of Weekly RP Attacks (All Attacks), Change from Baseline, Median [11]: −1.32
- Average Severity of Weekly RP Attacks (All Attacks), Mean [11]: 4.90
- Average Severity of Weekly RP Attacks (All Attacks), Median [11]: 4.90
- Average Severity of Weekly RP Attacks (All Attacks), Percent Change from Baseline, Mean [12]: −21.36%
- Average Severity of Weekly RP Attacks (All Attacks), Percent Change from Baseline, Median [12]: −9.57%
- Average Severity of Weekly RP Attacks (All Attacks), Change from Baseline, Mean [13]: −0.84
- Average Severity of Weekly RP Attacks (All Attacks), Change from Baseline, Median [13]: −0.39
- Average Severity of Weekly RP Attacks (All Attacks), Mean [13]: 2.78
- Average Severity of Weekly RP Attacks (All Attacks), Median [13]: 2.40
- Average Severity of Weekly RP Attacks (All Attacks), Percent Change from Baseline, Mean [14]: −23.23%
- Average Severity of Weekly RP Attacks (All Attacks), Percent Change from Baseline, Median [14]: −23.23%
- Average Severity of Weekly RP Attacks (All Attacks), Change from Baseline, Mean [15]: −1.53
- Average Severity of Weekly RP Attacks (All Attacks), Change from Baseline, Median [15]: −1.53
- Average Severity of Weekly RP Attacks (All Attacks), Mean [15]: 5.06
- Average Severity of Weekly RP Attacks (All Attacks), Median [15]: 5.06
- Average Severity of Weekly RP Attacks (All Attacks), Percent Change from Baseline, Mean [16]: −17.99%
- Average Severity of Weekly RP Attacks (All Attacks), Percent Change from Baseline, Median [16]: −7.69%
- Average Severity of Weekly RP Attacks (All Attacks), Change from Baseline, Mean [17]: −0.71
- Average Severity of Weekly RP Attacks (All Attacks), Change from Baseline, Median [17]: −0.20
- Average Severity of Weekly RP Attacks (All Attacks), Mean [17]: 2.55
- Average Severity of Weekly RP Attacks (All Attacks), Median [17]: 2.40
- Average Severity of Weekly RP Attacks (All Attacks), Change from Baseline, Mean [18]: −0.71
- Average Severity of Weekly RP Attacks (All Attacks), Change from Baseline, Median [18]: −0.20
- Average Severity of Weekly RP Attacks (All Attacks), Mean [18]: 2.55
- Average Severity of Weekly RP Attacks (All Attacks), Median [18]: 2.40
- Average Severity of Weekly RP Attacks (All Attacks), Percent Change from Baseline, Mean [18]: −17.99%
- Average Severity of Weekly RP Attacks (All Attacks), Percent Change from Baseline, Median [18]: −7.69%
- Average Severity of Weekly Symptomatic RP Attacks (Mean) [19]: 2.79
- Average Severity of Weekly Symptomatic RP Attacks (Median) [19]: 2.40
- Average Severity of Weekly Symptomatic RP Attacks, Change from Baseline, Mean [19]: −0.87
- Average Severity of Weekly Symptomatic RP Attacks, Change from Baseline, Median [19]: −0.33
- Average Severity of Weekly Symptomatic RP Attacks, Percent Change from Baseline, Mean [19]: −19.22%
- Average Severity of Weekly Symptomatic RP Attacks, Percent Change from Baseline, Median [19]: −12.02%
- Average Severity of Weekly RP Attacks (All Attacks), Change from Baseline, Mean [20]: −0.71
- Average Severity of Weekly RP Attacks (All Attacks), Change from Baseline, Median [20]: −0.20
- Average Severity of Weekly RP Attacks (All Attacks), Mean [20]: 2.55
- Average Severity of Weekly RP Attacks (All Attacks), Median [20]: 2.40
- Average Severity of Weekly RP Attacks (All Attacks), Percent Change from Baseline, Mean [20]: −17.99%
